Experimental data reported in ChEMBL document CHEMBL4346760, “Alkynamide phthalazinones as a new class of TbrPDEB1 inhibitors (Part 2)” (Bioorg Med Chem, 2019).
Calls of active or inactive are those of the source. The calls are words filed in the database; no cut-off is given here.

Tests used:
[1] = target: T1, Class 1 phosphodiesterase PDEB1 (Trypanosoma brucei, UniProt Q8WQX9); experiment: Inhibition of Trypanosoma brucei PDEB1 catalytic domain using cAMP as substrate incubated for 20 mins by PDELight HTS cAMP phosphodiesterase Kit based luminometry
T1 sequence (Q8WQX9 whole entry): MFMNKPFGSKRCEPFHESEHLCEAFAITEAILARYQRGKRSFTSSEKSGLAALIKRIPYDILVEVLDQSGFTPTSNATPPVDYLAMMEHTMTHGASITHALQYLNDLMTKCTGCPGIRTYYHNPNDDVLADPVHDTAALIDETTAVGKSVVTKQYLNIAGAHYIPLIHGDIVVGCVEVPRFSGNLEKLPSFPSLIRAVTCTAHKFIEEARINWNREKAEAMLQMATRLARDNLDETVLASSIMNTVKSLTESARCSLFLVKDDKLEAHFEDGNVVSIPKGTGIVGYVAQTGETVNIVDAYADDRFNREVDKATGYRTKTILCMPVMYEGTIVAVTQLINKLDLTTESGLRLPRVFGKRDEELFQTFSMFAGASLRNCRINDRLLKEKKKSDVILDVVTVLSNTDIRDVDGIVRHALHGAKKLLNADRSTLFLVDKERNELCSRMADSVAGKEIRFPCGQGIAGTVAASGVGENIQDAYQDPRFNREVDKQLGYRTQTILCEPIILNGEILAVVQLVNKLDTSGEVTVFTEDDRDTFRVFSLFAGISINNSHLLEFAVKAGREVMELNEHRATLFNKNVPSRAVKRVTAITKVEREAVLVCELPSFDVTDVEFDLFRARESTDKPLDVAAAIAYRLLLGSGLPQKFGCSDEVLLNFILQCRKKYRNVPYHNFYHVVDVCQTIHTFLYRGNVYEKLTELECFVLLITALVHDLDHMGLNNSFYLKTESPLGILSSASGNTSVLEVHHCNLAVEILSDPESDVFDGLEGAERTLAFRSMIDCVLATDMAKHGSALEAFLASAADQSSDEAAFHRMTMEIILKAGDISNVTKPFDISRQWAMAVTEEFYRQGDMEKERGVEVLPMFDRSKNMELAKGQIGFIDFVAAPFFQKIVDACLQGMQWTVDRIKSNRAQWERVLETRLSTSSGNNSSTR

[2] = Cytotoxicity against human MRC5 cells assessed as reduction in cell viability incubated for 72 hrs by resazurin dye-based fluorimetric analysis
Trypanosoma brucei [3] = experiment: Antitrypanosomal activity against Trypanosoma brucei Squib 427 trypomastigotes assessed as reduction in parasite growth incubated for 72 hrs by resazurin dye-based fluorimetric analysis; assay type: functional, organism-based; conditions: Squib 427, 72 h
[4] = target: 3',5'-cyclic-AMP phosphodiesterase 4B (Homo sapiens, UniProt Q07343); experiment: Inhibition of human PDE4B catalytic domain using cAMP as substrate incubated for 20 mins by PDELight HTS cAMP phosphodiesterase Kit based luminometry
Sequence of 3',5'-cyclic-AMP phosphodiesterase 4B (Q07343 whole entry, the tested form may be a part): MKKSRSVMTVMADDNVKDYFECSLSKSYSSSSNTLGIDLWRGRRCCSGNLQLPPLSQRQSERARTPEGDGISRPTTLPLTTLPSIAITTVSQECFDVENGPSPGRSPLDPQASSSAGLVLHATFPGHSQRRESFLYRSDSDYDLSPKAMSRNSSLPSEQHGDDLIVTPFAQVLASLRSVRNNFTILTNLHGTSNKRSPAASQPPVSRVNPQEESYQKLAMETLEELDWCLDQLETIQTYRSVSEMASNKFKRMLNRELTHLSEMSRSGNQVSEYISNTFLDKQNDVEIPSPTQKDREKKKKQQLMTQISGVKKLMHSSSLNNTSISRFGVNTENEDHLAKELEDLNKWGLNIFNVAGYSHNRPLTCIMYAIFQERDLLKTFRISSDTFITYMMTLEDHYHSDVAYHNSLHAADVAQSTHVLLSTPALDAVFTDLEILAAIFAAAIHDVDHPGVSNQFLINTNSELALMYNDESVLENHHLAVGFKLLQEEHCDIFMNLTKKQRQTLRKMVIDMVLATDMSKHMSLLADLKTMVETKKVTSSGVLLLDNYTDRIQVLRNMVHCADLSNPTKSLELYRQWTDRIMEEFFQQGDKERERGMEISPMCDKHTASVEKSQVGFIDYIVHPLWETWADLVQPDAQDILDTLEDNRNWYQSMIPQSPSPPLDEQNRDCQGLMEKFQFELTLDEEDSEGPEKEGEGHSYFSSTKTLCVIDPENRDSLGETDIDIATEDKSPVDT

[5] = Selectivity index, ratio of pKi for Trypanosoma brucei PDEB1 to pKi for human PDE4B using cAMP as substrate incubated for 20 mins by PDELight HTS cAMP phosphodiesterase Kit based luminometry
Trypanosoma brucei [6] = experiment: Antitrypanosomal activity against procyclic form of Trypanosoma brucei 2913 assessed as increase in intracellular cAMP level at 1 to 10 uM by cAMP sensor based FRET assay; assay type: functional, organism-based
Trypanosoma brucei [7] = experiment: Antitrypanosomal activity against bloodstream form of Trypanosoma brucei 221 cells assessed as blockade in cytokinesis with multiple flagella and nuclei formation at 1 uM incubated for 24 to 48 hrs by DAPI/PFR-staining based fluorescence microscopy; assay type: functional, organism-based
[8] = target: T2, 3',5'-cyclic-AMP phosphodiesterase 4D (Homo sapiens, UniProt Q08499); experiment: Binding affinity to human PDE4D assessed as dissociation constant treated for 60 secs measured for 300 secs by SPR assay
T2 sequence (Q08499 whole entry): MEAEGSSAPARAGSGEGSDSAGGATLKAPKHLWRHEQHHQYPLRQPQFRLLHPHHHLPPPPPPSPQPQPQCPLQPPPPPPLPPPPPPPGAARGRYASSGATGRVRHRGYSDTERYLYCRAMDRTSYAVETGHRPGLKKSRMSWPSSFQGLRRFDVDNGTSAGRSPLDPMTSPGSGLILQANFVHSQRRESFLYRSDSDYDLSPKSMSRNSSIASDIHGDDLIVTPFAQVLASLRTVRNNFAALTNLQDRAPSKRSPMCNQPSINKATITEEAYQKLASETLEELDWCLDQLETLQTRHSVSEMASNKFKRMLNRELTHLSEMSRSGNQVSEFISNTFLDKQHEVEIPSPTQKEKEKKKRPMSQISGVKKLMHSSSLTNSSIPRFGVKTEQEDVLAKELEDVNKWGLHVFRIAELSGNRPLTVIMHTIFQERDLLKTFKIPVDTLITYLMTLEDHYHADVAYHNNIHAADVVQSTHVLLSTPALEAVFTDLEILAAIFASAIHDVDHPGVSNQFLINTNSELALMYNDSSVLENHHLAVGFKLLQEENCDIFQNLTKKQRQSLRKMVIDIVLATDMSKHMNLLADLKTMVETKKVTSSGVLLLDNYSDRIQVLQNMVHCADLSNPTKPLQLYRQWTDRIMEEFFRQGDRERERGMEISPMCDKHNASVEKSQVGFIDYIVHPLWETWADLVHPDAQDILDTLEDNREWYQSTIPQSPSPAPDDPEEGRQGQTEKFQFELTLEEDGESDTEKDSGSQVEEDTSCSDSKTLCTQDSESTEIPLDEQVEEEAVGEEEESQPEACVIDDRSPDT

[9] = target: T1, Class 1 phosphodiesterase PDEB1; experiment: Binding affinity to Trypanosoma brucei PDEB1 assessed as dissociation constant treated for 60 secs measured for 300 secs by SPR assay
[10] = target: T2, 3',5'-cyclic-AMP phosphodiesterase 4D; experiment: Binding affinity to human PDE4D assessed as dissociation constant treated for 320 secs measured for 900 secs by SPR assay
[11] = target: T1, Class 1 phosphodiesterase PDEB1; experiment: Binding affinity to Trypanosoma brucei PDEB1 assessed as dissociation constant treated for 320 secs measured for 900 secs by SPR assay

Ki [1] [nM]	IC50 (Trypanosoma brucei [3]) [nM]	Ki [4] [nM]	Ratio pKi [5]	Kd [8] [nM]	Kd [9] [nM]	Kd [10] [nM]	Kd [11] [nM]	Compound	CC50 at 72 h [2] [nM]	Activity (Trypanosoma brucei [6])	Activity (Trypanosoma brucei [7])
316	6310	794						COc1ccc(C2=NN(C(C)C)C(=O)[C@@H]3CC=CC[C@H]23)cc1C#CC(=O)NCC1CCC1 (relative stereo)	> 63100		
200	1580	1000						COc1cccc(NC(=O)C#Cc2cc(C3=NN(C(C)C)C(=O)[C@@H]4CC=CC[C@H]34)ccc2OC)c1 (relative stereo)	> 63100		
631	7940	398						COc1ccc(C2=NN(C(C)C)C(=O)[C@@H]3CC=CC[C@H]23)cc1C#CC(=O)N1CC(C#N)C1 (relative stereo)	7940		
398	7940	1260						COc1ccc(C2=NN(C(C)C)C(=O)[C@@H]3CC=CC[C@H]23)cc1C#CC(=O)NCC1CCCO1 (relative stereo)	31600		
316	7940	501						CCCCNC(=O)C#Cc1cc(C2=NN(C(C)C)C(=O)[C@@H]3CC=CC[C@H]23)ccc1OC (relative stereo)	> 63100		
316	2000	794						COc1ccc(C2=NN(C(C)C)C(=O)[C@@H]3CC=CC[C@H]23)cc1C#CC(=O)NCCc1ccccc1F (relative stereo)	> 63100		
200	2000	251						COc1ccc(C2=NN(C(C)C)C(=O)[C@@H]3CC=CC[C@H]23)cc1C#CC(=O)NCc1sc(C)nc1C (relative stereo)	7940		
398	7940	631						COc1ccc(C2=NN(C(C)C)C(=O)[C@@H]3CC=CC[C@H]23)cc1C#CC(=O)NCCCn1ccnc1 (relative stereo)	251		
251	5010	398						COc1ccc(C2=NN(C(C)C)C(=O)[C@@H]3CC=CC[C@H]23)cc1C#CC(=O)NCCc1nccs1 (relative stereo)	10000		
316	2000	1000						COc1ccc(C2=NN(C(C)C)C(=O)[C@@H]3CC=CC[C@H]23)cc1C#CC(=O)NCc1csc(C)n1 (relative stereo)	12600		
			1					COc1ccc(C2=NN(C3CCCCCC3)C(=O)[C@@H]3CC=CC[C@H]23)cc1-c1ccc(C(=O)NCC(N)=O)cc1			
100	1000	631						COc1ccc(C2=NN(C(C)C)C(=O)[C@@H]3CC=CC[C@H]23)cc1C#CC(=O)NCc1ccncc1 (relative stereo)	31600	Active	Active
2510	> 63100	501						COc1ccc(C2=NN(C(C)C)C(=O)[C@@H]3CC=CC[C@H]23)cc1C#CC(=O)Nc1cnn(C)n1 (relative stereo)	10000		
126	1000	501						COc1ccc(C2=NN(C(C)C)C(=O)[C@@H]3CC=CC[C@H]23)cc1C#CC(=O)NCc1cccs1 (relative stereo)	63100		
501	6310	316		251	794			COc1ccc(C2=NN(C(C)C)C(=O)[C@@H]3CC=CC[C@H]23)cc1C#CC(N)=O (relative stereo)	31600		
158	631	794				79.4	79.4	COc1ccc(C2=NN(C(C)C)C(=O)[C@@H]3CC=CC[C@H]23)cc1C#CC(=O)NCc1ccccc1 (relative stereo)	> 63100	Active	Active
200	3160	200						COc1ccc(C2=NN(C(C)C)C(=O)[C@@H]3CC=CC[C@H]23)cc1C#CC(=O)NCc1ccc(C)o1 (relative stereo)	> 63100		
794	2000	1260						COc1ccc(C2=NN(C(C)C)C(=O)[C@@H]3CC=CC[C@H]23)cc1C#CC(=O)Nc1ccn(CCCC#N)n1 (relative stereo)	7940		
1000	25100	794						COc1ccc(C2=NN(C(C)C)C(=O)[C@@H]3CC=CC[C@H]23)cc1C#CC(=O)NCCC#N (relative stereo)	31600		
398	7940	316						COc1ccc(C2=NN(C(C)C)C(=O)[C@@H]3CC=CC[C@H]23)cc1C#CC(=O)NCC1CC1 (relative stereo)	> 63100		
398	2510	794						COc1ccc(C2=NN(C(C)C)C(=O)[C@@H]3CC=CC[C@H]23)cc1C#CC(=O)NCCc1cccs1 (relative stereo)	> 63100		
1000	10000	794						COc1ccc(C2=NN(C(C)C)C(=O)[C@@H]3CC=CC[C@H]23)cc1C#CC(=O)N1CCOCC1 (relative stereo)	31600		
126	2510	398						COc1ccc(C2=NN(C(C)C)C(=O)[C@@H]3CC=CC[C@H]23)cc1C#CC(=O)NCc1ccco1 (relative stereo)	> 63100		
126	1580	631						COc1ccc(C2=NN(C(C)C)C(=O)[C@@H]3CC=CC[C@H]23)cc1C#CC(=O)NCc1cnn(C)c1	20000		
100	1260	501						COc1ccc(C2=NN(C(C)C)C(=O)[C@@H]3CC=CC[C@H]23)cc1C#CC(=O)NCc1cccnc1 (relative stereo)	3980		
631		316						COc1ccc(C2=NN(C3CCCCCC3)C(=O)[C@@H]3CC=CC[C@H]23)cc1C#CC(N)=O			
